Measured values: ChEMBL document CHEMBL1681708, “The synthesis and structure-activity relationship of pyridazinones as glucan synthase inhibitors” (Bioorg Med Chem Lett, 2011)
Values after ≈ are worked out from the molar mass of the structure shown.

Tests used:
[1] = molecular target: T1, Beta-1,3-glucan synthase (Candida albicans, UniProt O13383); experiment: Inhibition of Candida albicans BWP17 1,3-beta-D-glucan synthase
T1 sequence (O13383 whole entry): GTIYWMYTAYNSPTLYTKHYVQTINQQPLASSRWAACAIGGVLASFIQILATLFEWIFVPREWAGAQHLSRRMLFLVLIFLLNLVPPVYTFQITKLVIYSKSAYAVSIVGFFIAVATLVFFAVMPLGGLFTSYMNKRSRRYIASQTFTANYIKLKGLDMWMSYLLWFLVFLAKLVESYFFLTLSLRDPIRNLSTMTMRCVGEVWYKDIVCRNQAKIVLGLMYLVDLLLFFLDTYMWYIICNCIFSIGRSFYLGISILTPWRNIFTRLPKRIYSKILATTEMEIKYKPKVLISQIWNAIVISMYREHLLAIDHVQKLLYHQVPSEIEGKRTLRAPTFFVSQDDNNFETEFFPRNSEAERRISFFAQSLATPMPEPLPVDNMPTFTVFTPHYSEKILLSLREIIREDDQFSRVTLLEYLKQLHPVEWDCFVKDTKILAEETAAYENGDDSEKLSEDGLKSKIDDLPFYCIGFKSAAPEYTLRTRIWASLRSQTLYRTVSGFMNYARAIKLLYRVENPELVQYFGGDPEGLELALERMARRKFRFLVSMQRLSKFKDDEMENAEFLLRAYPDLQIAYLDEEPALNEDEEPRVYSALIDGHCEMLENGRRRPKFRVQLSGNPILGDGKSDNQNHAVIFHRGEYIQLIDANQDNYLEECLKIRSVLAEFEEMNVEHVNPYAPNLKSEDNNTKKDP

[2] = tested on: Nakaseomyces glabratus; experiment: Antifungal activity against Candida glabrata C624 by broth dilution method; format: functional; conditions: read-out: MIC100
[3] = tested on: Candida albicans; experiment: Antifungal activity against Candida albicans C693 by broth dilution method; format: functional; conditions: for MIC: read-out: MIC100
[4] = AUC (0 to 6 hrs) in rat at 10 mg/kg, po administered with methylcellulose; format: ADME, organism-based; parameters: time < 6 hr, dose 10 mg/kg, route oral; conditions: in vivo
[5] = tested on: Aspergillus fumigatus; experiment: Antifungal activity against Aspergillus fumigatus ND158 by broth dilution method; format: functional; conditions: read-out: MEC
[6] = molecular target: Cytochrome P450 2C9 (Homo sapiens, UniProt P11712); experiment: Inhibition of CYP2C9 at 30 uM; format: ADME
[7] = tested on: Candida glabrata; experiment: Antifungal activity against Candida glabrata C624 infected in immunocompromized mouse assessed as log10 reduction in CFU in kidney at 10 mg/kg, poqd for seven days (reference value: 4.28 log10 CFU)
[8] = molecular target: Cytochrome P450 3A4 (Homo sapiens, UniProt P08684); experiment: Inhibition of CYP3A4 at 30 uM; format: ADME
[9] = molecular target: Cytochrome P450 2D6 (Homo sapiens, UniProt P10635); experiment: Inhibition of CYP2D6 at 30 uM; format: ADME
[10] = tested on: Hepatocyte; experiment: Clearance in human hepatocytes measured per molar mass of cells; format: ADME, cell-based, Liver
[11] = tested on: Hepatocyte; experiment: Clearance in rat hepatocytes measured per molar mass of cells; format: ADME, cell-based, Liver
[12] = AUC (0 to 8 hrs) in dog at 2 mg/kg, po administered with methylcellulose and HPBCD; format: ADME, organism-based, Canis lupus familiaris; parameters: time < 8 hr, dose 2 mg/kg, route oral; conditions: in vivo
[13] = tested on: Candida glabrata; experiment: Antifungal activity against Candida glabrata C624 infected in immunocompromized mouse assessed as log10 reduction in CFU in kidney at 30 mg/kg, poqd for seven days (reference value: 4.28 log10 CFU)
[14] = Clearance in dog hepatocytes measured per molar mass of cells; format: ADME, cell-based, Canis lupus familiaris, Liver, Hepatocyte
[15] = molecular target: hERG (KCNH2) (Homo sapiens, UniProt Q12809); experiment: Inhibition of human ERG at 1 uM by patch clamp assay
hERG (KCNH2), sequence (Q12809 whole entry): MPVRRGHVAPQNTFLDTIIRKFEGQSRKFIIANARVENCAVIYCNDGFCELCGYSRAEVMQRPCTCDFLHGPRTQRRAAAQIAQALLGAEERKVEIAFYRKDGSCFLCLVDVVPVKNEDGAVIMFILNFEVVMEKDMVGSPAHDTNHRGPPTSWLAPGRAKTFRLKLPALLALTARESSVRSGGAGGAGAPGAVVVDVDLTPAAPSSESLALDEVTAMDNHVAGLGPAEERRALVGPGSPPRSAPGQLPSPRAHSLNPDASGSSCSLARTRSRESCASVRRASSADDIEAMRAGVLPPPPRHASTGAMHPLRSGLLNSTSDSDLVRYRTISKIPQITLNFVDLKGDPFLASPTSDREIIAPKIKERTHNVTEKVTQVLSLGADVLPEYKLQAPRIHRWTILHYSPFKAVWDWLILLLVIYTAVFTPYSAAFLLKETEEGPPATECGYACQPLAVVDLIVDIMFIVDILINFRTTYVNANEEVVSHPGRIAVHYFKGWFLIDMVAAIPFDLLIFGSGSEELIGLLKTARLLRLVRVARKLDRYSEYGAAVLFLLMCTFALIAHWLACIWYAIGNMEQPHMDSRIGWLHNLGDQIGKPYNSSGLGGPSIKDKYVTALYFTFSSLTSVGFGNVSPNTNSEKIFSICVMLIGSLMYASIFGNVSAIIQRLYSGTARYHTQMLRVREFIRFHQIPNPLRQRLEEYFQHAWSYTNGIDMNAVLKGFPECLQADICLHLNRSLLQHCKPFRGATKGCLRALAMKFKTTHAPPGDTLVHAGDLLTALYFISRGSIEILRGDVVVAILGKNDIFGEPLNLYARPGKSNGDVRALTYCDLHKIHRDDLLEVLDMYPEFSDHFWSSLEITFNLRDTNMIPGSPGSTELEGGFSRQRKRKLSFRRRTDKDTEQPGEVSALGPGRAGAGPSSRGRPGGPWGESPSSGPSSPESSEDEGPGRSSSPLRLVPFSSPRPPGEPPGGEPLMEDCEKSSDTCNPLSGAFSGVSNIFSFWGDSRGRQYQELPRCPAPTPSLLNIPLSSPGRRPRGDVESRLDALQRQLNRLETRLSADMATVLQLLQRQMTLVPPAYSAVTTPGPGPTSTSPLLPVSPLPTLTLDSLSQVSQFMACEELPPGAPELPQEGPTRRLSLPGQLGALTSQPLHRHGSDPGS

Cytochrome P450 2C9, sequence (P11712 whole entry): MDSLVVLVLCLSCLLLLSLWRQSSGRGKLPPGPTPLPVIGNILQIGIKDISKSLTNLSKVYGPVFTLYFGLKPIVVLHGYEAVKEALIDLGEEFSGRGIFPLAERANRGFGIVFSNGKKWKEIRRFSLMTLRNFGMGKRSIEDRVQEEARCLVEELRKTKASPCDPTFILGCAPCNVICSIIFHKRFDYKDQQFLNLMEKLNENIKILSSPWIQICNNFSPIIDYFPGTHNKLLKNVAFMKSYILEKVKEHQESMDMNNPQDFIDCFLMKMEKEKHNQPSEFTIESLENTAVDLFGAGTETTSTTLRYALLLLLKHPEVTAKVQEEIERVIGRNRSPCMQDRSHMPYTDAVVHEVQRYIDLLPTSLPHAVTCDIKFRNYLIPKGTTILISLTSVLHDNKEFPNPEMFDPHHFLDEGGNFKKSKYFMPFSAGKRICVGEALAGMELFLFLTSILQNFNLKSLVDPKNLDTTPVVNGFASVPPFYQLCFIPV
Cytochrome P450 2D6, sequence (P10635 whole entry): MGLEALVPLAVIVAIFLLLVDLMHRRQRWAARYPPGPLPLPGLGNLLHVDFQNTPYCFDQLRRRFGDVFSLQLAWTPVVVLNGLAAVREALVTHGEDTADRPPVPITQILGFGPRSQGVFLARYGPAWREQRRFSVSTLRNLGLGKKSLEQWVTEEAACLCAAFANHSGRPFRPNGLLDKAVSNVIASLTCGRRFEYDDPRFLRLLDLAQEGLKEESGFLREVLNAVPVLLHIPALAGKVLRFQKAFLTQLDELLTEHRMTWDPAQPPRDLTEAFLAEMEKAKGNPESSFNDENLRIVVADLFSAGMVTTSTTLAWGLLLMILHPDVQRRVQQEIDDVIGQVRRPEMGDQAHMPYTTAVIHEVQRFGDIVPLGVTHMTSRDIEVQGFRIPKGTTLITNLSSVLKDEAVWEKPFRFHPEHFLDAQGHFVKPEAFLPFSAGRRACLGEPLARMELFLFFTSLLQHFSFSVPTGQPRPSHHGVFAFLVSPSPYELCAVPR
Cytochrome P450 3A4, sequence (P08684 whole entry): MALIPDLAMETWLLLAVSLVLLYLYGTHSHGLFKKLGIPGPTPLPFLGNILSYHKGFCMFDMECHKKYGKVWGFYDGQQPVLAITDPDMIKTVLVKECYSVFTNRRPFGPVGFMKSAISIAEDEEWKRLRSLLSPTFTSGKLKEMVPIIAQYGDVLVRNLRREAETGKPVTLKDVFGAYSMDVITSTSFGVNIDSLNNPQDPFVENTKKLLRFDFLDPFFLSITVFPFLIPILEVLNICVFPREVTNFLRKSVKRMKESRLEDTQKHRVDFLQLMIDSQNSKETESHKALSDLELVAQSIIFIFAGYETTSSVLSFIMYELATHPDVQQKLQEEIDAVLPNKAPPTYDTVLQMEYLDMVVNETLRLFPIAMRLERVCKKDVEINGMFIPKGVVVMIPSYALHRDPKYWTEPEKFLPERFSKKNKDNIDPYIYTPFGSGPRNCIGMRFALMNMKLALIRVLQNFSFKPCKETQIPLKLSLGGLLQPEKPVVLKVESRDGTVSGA

Row | SMILES | IC50 [1] | MIC [2] | MIC [3] | also measured
1 | O=c1c(OC2CCCC2)c(N2CCN(S(=O)(=O)c3ccccn3)CC2)cnn1-c1ccccc1 | 2700 nM | 0.63 µg/mL (≈ 1.31 µM) | 5 µg/mL (≈ 10.4 µM) | 
2 | CS(=O)(=O)N1CCN(c2cnn(-c3ccccc3)c(=O)c2OC2CCCC2)CC1 | 5260 nM | 0.63 µg/mL (≈ 1.51 µM) | > 20 µg/mL | 
3 | O=c1c(N2CCOCC2)c(N2CCN(S(=O)(=O)Cc3ccccc3)CC2)cnn1-c1ccccc1 | 9280 nM | 0.39 µg/mL (≈ 0.787 µM) | > 50 µg/mL | 
4 | O=c1c(C2CCCCC2)c(N2CCN(S(=O)(=O)Cc3ccccc3)CC2)cnn1-c1ccccc1 | 4470 nM | > 20 µg/mL | > 20 µg/mL | 
5 | CCOCCCNc1c(N2CCN(S(=O)(=O)Cc3ccccc3)CC2)cnn(-c2ccccc2)c1=O | 4500 nM | 0.78 µg/mL (≈ 1.52 µM) | > 50 µg/mL | 
6 | CCCCCCCc1c(N2CCN(S(=O)(=O)Cc3ccccc3)CC2)cnn(-c2ccccc2)c1=O | 2950 nM | 0.78 µg/mL (≈ 1.53 µM) | > 50 µg/mL | 
7 | CCOCCOc1c(N2CCN(S(=O)(=O)Cc3ccccc3)CC2)cnn(-c2ccccc2)c1=O | 1810 nM | 0.1 µg/mL (≈ 0.201 µM) | 3.1 µg/mL (≈ 6.22 µM) | 
8 | CCCCCCCSc1c(N2CCN(S(=O)(=O)Cc3ccccc3)CC2)cnn(-c2ccccc2)c1=O | 2030 nM | 0.78 µg/mL (≈ 1.44 µM) |  | MIC50 [3]: 3.1 µg/mL (≈ 5.73 µM)
9 | CCCCCCC[S+]([O-])c1c(N2CCN(S(=O)(=O)Cc3ccccc3)CC2)cnn(-c2ccccc2)c1=O (stereo not drawn) | 5390 nM | 0.59 µg/mL (≈ 1.06 µM) | 25 µg/mL (≈ 44.9 µM) | 
10 | CCCCCCCS(=O)(=O)c1c(N2CCN(S(=O)(=O)Cc3ccccc3)CC2)cnn(-c2ccccc2)c1=O | > 17500 nM | 1.6 µg/mL (≈ 2.79 µM) | > 50 µg/mL | 
11 | CC1CN(S(=O)(=O)Cc2ccccc2)CCN1c1cnn(-c2ccccc2)c(=O)c1OC1CCCCC1 (stereo not drawn) | 4210 nM | 0.39 µg/mL (≈ 0.746 µM) | 6.3 µg/mL (≈ 12.1 µM) | 
12 | C[C@@H]1CN(c2cnn(-c3ccccc3)c(=O)c2OC2CCCCC2)CCN1S(=O)(=O)Cc1ccccc1 | 5360 nM | 0.78 µg/mL (≈ 1.49 µM) |  | MIC50 [3]: 19 µg/mL (≈ 36.4 µM)
13 | C[C@H]1CN(c2cnn(-c3ccccc3)c(=O)c2OC2CCCCC2)CCN1S(=O)(=O)Cc1ccccc1 | 8230 nM | 0.39 µg/mL (≈ 0.746 µM) |  | MIC50 [3]: 2 µg/mL (≈ 3.83 µM)
14 | O=c1c(OC2CCCCC2)c(N2CC3CC2CN3S(=O)(=O)Cc2ccccc2)cnn1-c1ccccc1 (stereo not drawn) | > 19200 nM | > 50 µg/mL | > 50 µg/mL | 
15 | O=c1c(OC2CCCC2)c(N2CCN(S(=O)(=O)c3ccccc3)CC2)cnn1-c1ccccc1 | > 20800 nM | 0.15 µg/mL (≈ 0.312 µM) |  | MIC50 [3]: 0.78 µg/mL (≈ 1.62 µM)
16 | CC(C)S(=O)(=O)N1CCN(c2cnn(-c3ccccc3)c(=O)c2OC2CCCC2)CC1 | 3810 nM | 0.2 µg/mL (≈ 0.448 µM) |  | AUC(0-t) at 6 h [4]: 1600 ng·h/mL; MIC50 [3]: 25 µg/mL (≈ 56 µM)
17 | CC(C)S(=O)(=O)N1CCN(c2cnn(C3CCCCC3)c(=O)c2OC2CCCC2)CC1 | 19400 nM | 0.78 µg/mL (≈ 1.72 µM) | > 50 µg/mL | 
18 | CC(C)S(=O)(=O)N1CCN(c2cnn(-c3cccnc3)c(=O)c2OC2CCCC2)CC1 | 13600 nM | 1.6 µg/mL (≈ 3.57 µM) | > 50 µg/mL | 
19 | CC(C)S(=O)(=O)N1CCN(c2cnn(-c3nccs3)c(=O)c2OC2CCCC2)CC1 | > 22000 nM | 8.4 µg/mL (≈ 18.5 µM) | > 20 µg/mL | 
20 | CC(C)S(=O)(=O)N1CCN(c2cnn(-c3cccc(F)c3)c(=O)c2OC2CCCC2)CC1 | 2150 nM | 0.1 µg/mL (≈ 0.215 µM) | 6.3 µg/mL (≈ 13.6 µM) | minimal effective concentration [5]: 1.6 µg/mL; AUC(0-t) at 6 h [4]: 670 ng·h/mL
21 | CC(C)S(=O)(=O)N1CCN(c2cnn(-c3cccc(O)c3)c(=O)c2OC2CCCC2)CC1 | 1950 nM | 2.5 µg/mL (≈ 5.4 µM) | > 20 µg/mL | 
22 | CC(C)S(=O)(=O)N1CCN(c2cnn(-c3cccc(N)c3)c(=O)c2OC2CCCC2)CC1 | 4120 nM | 25 µg/mL (≈ 54.2 µM) | > 50 µg/mL | 
23 | CC(C)S(=O)(=O)N1CCN(c2cnn(-c3cccc(F)c3)c(=O)c2OC2CCC(F)(F)C2)CC1 (stereo not drawn) | 2200 nM | 0.78 µg/mL (≈ 1.56 µM) | 6.3 µg/mL (≈ 12.6 µM) | minimal effective concentration [5]: 3.1 µg/mL; AUC(0-t) at 6 h [4]: 470 ng·h/mL

Stronger by IC50 [1], values ahead:

Row | IC50 [1] | MIC [2] | MIC [3] | SMILES | also measured
24 | 1040 nM | 0.05 µg/mL (≈ 0.0983 µM) | 0.78 µg/mL (≈ 1.53 µM) | O=c1c(OC2CCCCC2)c(N2CCN(S(=O)(=O)Cc3ccccc3)CC2)cnn1-c1ccccc1 | 
25 | 364 nM | 0.03 µg/mL (≈ 0.0607 µM) | 0.26 µg/mL (≈ 0.526 µM) | O=c1c(OC2CCCC2)c(N2CCN(S(=O)(=O)Cc3ccccc3)CC2)cnn1-c1ccccc1 | 
26 | 229 nM | < 0.1 µg/mL | 0.78 µg/mL (≈ 1.49 µM) | CCCCCCCOc1c(N2CCN(S(=O)(=O)Cc3ccccc3)CC2)cnn(-c2ccccc2)c1=O | 
27 | 1190 nM | 0.06 µg/mL (≈ 0.121 µM) | 8.4 µg/mL (≈ 16.9 µM) | O=c1c(OC2CCCC2)c(N2CCN(S(=O)(=O)Cc3ccccn3)CC2)cnn1-c1ccccc1 | 
28 | 404 nM | 0.13 µg/mL (≈ 0.262 µM) | 8.4 µg/mL (≈ 16.9 µM) | O=c1c(OC2CCCC2)c(N2CCN(S(=O)(=O)Cc3cccnc3)CC2)cnn1-c1ccccc1 | 
29 | 1080 nM | 0.1 µg/mL (≈ 0.208 µM) | 3.1 µg/mL (≈ 6.44 µM) | CC(C)S(=O)(=O)N1CCN(c2cnn(-c3cccc(Cl)c3)c(=O)c2OC2CCCC2)CC1 | AUC(0-t) at 6 h [4]: 490 ng·h/mL
30 | 1280 nM | 0.4 µg/mL (≈ 0.829 µM) | 6.3 µg/mL (≈ 13.1 µM) | CC(C)S(=O)(=O)N1CCN(c2cnn(-c3cc(F)cc(F)c3)c(=O)c2OC2CCCC2)CC1 | 
31 | 501 nM | 0.06 µg/mL (≈ 0.12 µM) | 6.3 µg/mL (≈ 12.6 µM) | CC(C)S(=O)(=O)N1CCN(c2cnn(-c3cc(F)cc(Cl)c3)c(=O)c2OC2CCCC2)CC1 | AUC(0-t) at 6 h [4]: 490 ng·h/mL
32 | 504 nM | 0.2 µg/mL (≈ 0.388 µM) | 3.1 µg/mL (≈ 6.01 µM) | CC(C)S(=O)(=O)N1CCN(c2cnn(-c3cc(Cl)cc(Cl)c3)c(=O)c2OC2CCCC2)CC1 | 
33 | 1160 nM | 0.05 µg/mL (≈ 0.0964 µM) | 12.5 µg/mL (≈ 24.1 µM) | CC(C)S(=O)(=O)N1CCN(c2cnn(-c3cc(F)cc(F)c3)c(=O)c2OC2CCC(F)(F)C2)CC1 (stereo not drawn) | minimal effective concentration [5]: 3.1 µg/mL; AUC(0-t) at 6 h [4]: 440 ng·h/mL
34 | 870 nM | 0.13 µg/mL (≈ 0.269 µM) | 16.7 µg/mL (≈ 34.6 µM) | CC(C)S(=O)(=O)N1CCN(c2cnn(-c3cccc(F)c3)c(=O)c2OC2CCC(F)C2)CC1 (racemic) | minimal effective concentration [5]: 4.2 µg/mL; AUC(0-t) at 6 h [4]: 300 ng·h/mL
35 | 1240 nM | 0.1 µg/mL (≈ 0.2 µM) | 6.3 µg/mL (≈ 12.6 µM) | CC(C)S(=O)(=O)N1CCN(c2cnn(-c3cc(F)cc(F)c3)c(=O)c2OC2CCC(F)C2)CC1 (racemic) | inhibition (INH) [6]: Not Active; log10cfu [7]: 4.16; inhibition (INH) [8]: Not Active; inhibition (INH) [9]: Not Active; CL [10]: 1 µL/min; CL [11]: 2.4 µL/min; minimal effective concentration [5]: 1.6 µg/mL; AUC(0-t) at 8 h [12]: 3500 ng·h/mL; log10cfu [13]: 1.3; AUC(0-t) at 6 h [4]: 2100 ng·h/mL; CL [14]: 1.7 µL/min; inhibition at 1 µM [15]: 22%
